≈ marks a conversion by molar mass, not a printed value.
Tests used:
[1] = Antiproliferative activity against human QGY7703 cells; assay type: functional, cell-based; settings: QGY-7703
[2] = test system: RAW264.7; experiment: Antiinflammatory activity in mouse RAW264.7 cells assessed as inhibition of LPS-induced NO release; assay type: functional, cell-based
[3] = Inhibition of TNF-alpha-induced NF-kappaB activity in human pNF-kappaB-luc-293 cells; assay type: cell-based; settings: HEK293
[4] = test system: LoVo; experiment: Antiproliferative activity against human LoVo cells; assay type: functional, cell-based

| IC50 [2] [µg/mL] | IC50 [3] [µg/mL] | IC50 [4] [µg/mL] | SMILES | IC50 [1] [µg/mL] |
| --- | --- | --- | --- | --- |
| > 100 | > 100 | > 25 | C=C[C@@](C)(O)CCC1C(=C)CC[C@H]2[C@](C)(COC(=O)CCC(=O)O)CCC[C@]12C (some centres undefined) [ABIESADINE X] | > 25 |
| – | – | 13 (≈ 42.1 µM) | C=C[C@@](C)(O)CC[C@@H]1[C@@]2(C)CCCC(C)(C)[C@@H]2CC[C@@]1(C)O | > 25 |
| 48.5 (≈ 115 µM) | 22.4 (≈ 53.3 µM) | 10.6 (≈ 25.2 µM) | C=C[C@@](C)(O)CC[C@H]1C(=C)CC[C@H]2[C@](C)(COC(=O)CCC(=O)OC)CCC[C@]12C [ABIESADINE Y] | > 25 |
| 21.6 (≈ 70.5 µM) | 8.7 (≈ 28.4 µM) | 23.1 (≈ 75.4 µM) | C=C[C@@](C)(O)[C@H]1CC2[C@@]3(C)CCCC(C)(C)C3CC[C@@]2(C)O1 (some centres undefined) | 15.7 (≈ 51.2 µM) |
| > 100 | > 100 | > 25 | CC(C)C1=CC2=CC[C@H]3[C@](C)(COC(=O)CCC(=O)O)CCC[C@]3(C)[C@H]2CC1 | > 25 |
| > 100 | > 100 | > 25 | CC(C)c1ccc2c(c1)[C@@H](O)C[C@H]1[C@](C)(C(=O)O)CCC[C@]21C | > 25 |
| > 100 | > 100 | 24.3 (≈ 79.3 µM) | C=C[C@@](C)(O)CCC1C(=C)CC[C@H]2[C@](C)(CO)CCC[C@]12C (some centres undefined) [TORREFEROL] | > 25 |
| > 100 | > 100 | > 25 | CC(C)c1ccc2c(c1)[C@@H](O)C[C@H]1[C@](C)(CO)CCC[C@]21C | > 25 |
| > 100 | > 100 | > 25 | CC(C)c1ccc(O)c(CC[C@@H]2[C@@](C)(O)CCC[C@@]2(C)C(=O)O)c1 [ABIESADINE B] | > 25 |
| > 100 | > 100 | > 25 | CC(C)c1ccc2c(c1)CC[C@H]1[C@](C)(COC(=O)CCC(=O)O)CCC[C@]21C | > 25 |
| > 100 | > 100 | 9.2 (≈ 32.1 µM) | CC(C)c1ccc2c(c1)CC[C@H]1[C@](C)(CO)CCC[C@]21C [POMIFERIN A] | > 25 |
| > 100 | > 100 | > 25 | COC(C)(C)c1ccc2c(c1)CC[C@H]1[C@](C)(C(=O)O)CCC[C@]21C [ABIESADINE N] | > 25 |
| > 100 | > 100 | > 25 | CC(C)(O)c1ccc2c(c1)[C@H](O)C[C@H]1[C@](C)(C(=O)O)CCC[C@]21C | > 25 |
| 76.4 (≈ 241 µM) | > 100 | > 25 | CC(C)(O)c1ccc2c(c1)CC[C@H]1[C@](C)(C(=O)O)CCC[C@]21C | > 25 |
| > 100 | > 100 | > 25 | CC(C)[C@]12O[C@H]1CC1[C@@]3(C)CCC[C@@](C)(C(=O)O)[C@@H]3CC[C@@]1(O)[C@H]2O (some centres undefined) [ABIESADINE C] | > 25 |
| > 100 | > 100 | > 25 | CC(C)C1=CC[C@H]2C(=C1)C(=O)C[C@@H]1[C@]2(C)CCC[C@@]1(C)C(=O)O [ABIESADINE E] | > 25 |
| 83.4 (≈ 200 µM) | > 100 | > 25 | COC(=O)CCC(=O)OC[C@]1(C)CCC[C@]2(C)c3ccc(C(C)C)cc3[C@H](O)C[C@@H]12 [ABIESADINE H] | > 25 |
| > 100 | > 100 | > 25 | CC(C)[C@]12CC[C@@]3(O1)[C@@]1(C)CCC[C@@](C)(C(=O)O)[C@@H]1CC[C@]3(O)[C@H]2O [ABIESADINE D] | > 25 |
| 11 (≈ 37.9 µM) | > 100 | > 25 | C=C[C@@](C)(O)CC[C@H]1C(=C)CC[C@H]2C(C)(C)CCC[C@]12C [MANOOL] | > 25 |
| > 100 | > 100 | > 25 | COC(C)(C)c1ccc2c(c1)CC[C@H]1[C@](C)(COC(=O)CCC(=O)O)CCC[C@]21C [ABIESADINE J] | > 25 |
| 94.1 (≈ 273 µM) | > 100 | > 25 | CCOC(C)(C)c1ccc2c(c1)CC[C@H]1[C@](C)(C(=O)O)CCC[C@]21C [ABIESADINE P] | > 25 |
| – | – | 0.55 (≈ 1.01 µM) | COc1cccc2c1C(=O)c1c(O)c3c(c(O)c1C2=O)C[C@@](O)(C(=O)CO)C[C@@H]3O[C@H]1C[C@H](N)[C@H](O)[C@H](C)O1 [DOXORUBICIN] | 0.42 (≈ 0.773 µM) |

| IC50 [2] [µg/mL] | IC50 [3] [µg/mL] | IC50 [4] [µg/mL] | SMILES | IC50 [1] [µg/mL] |
| --- | --- | --- | --- | --- |
| > 100 | > 100 | > 25 | CC(C)(O)c1ccc2c(c1)C(=O)C[C@H]1[C@](C)(COC(=O)CCC(=O)O)CCC[C@]21C [ABIESADINE R] | > 25 |
| 42.7 (≈ 142 µM) | > 100 | > 25 | CC(C)c1ccc2c(c1)CC[C@H]1[C@](C)(C(=O)O)CCC[C@]21C [DEHYDROABIETIC ACID] | > 25 |
| > 100 | > 100 | > 25 | CC(C)/C(C=O)=C\C[C@H]1C(=O)CC[C@@H]2[C@]1(C)CCC[C@@]2(C)C(=O)O [ABIESADINE A] | > 25 |
| 49 (≈ 114 µM) | > 100 | > 25 | COC(=O)CCC(=O)OC[C@]1(C)CCC[C@]2(C)c3ccc(C(C)(C)O)cc3C(=O)C[C@@H]12 [ABIESADINE S] | > 25 |
| > 100 | > 100 | 9.2 (≈ 30.4 µM) | CC(C)c1ccc2c(c1)[C@H](O)C[C@H]1[C@](C)(CO)CCC[C@]21C | > 25 |
| > 100 | > 100 | > 25 | CC(C)(O)C1=CC2=CC[C@@H]3[C@](C)(CCC[C@@]3(C)C(=O)O)[C@H]2CC1=O | > 25 |
| > 100 | > 100 | > 25 | CC(C)c1ccc2c(c1)[C@H](O)C[C@H]1[C@](C)(COC(=O)CCC(=O)O)CCC[C@]21C [ABIESADINE F] | > 25 |
| > 100 | > 100 | > 25 | CC(C)c1ccc2c(c1)[C@H](O)C[C@H]1[C@](C)(C(=O)O)CCC[C@]21C | > 25 |
| > 100 | > 100 | > 25 | CC(C)c1ccc2c(c1)C(=O)C[C@H]1[C@](C)(C(=O)O)CCC[C@]21C | 10.2 (≈ 32.4 µM) |
| > 100 | > 100 | > 25 | CC(C)c1ccc2c(c1)C(=O)C[C@H]1[C@](C)(COC(=O)CCC(=O)O)CCC[C@]21C [ABIESADINE Q] | > 25 |
| > 100 | > 100 | > 25 | CC(C)(O)c1ccc2c(c1)[C@@H](O)C[C@H]1[C@](C)(C(=O)O)CCC[C@]21C | > 25 |
| > 100 | > 100 | > 25 | C/C(=C\CO)CCC1[C@](C)(O)CC[C@H]2C(C)(C)CCC[C@]12C (some centres undefined) | > 25 |
| 44 (≈ 133 µM) | > 100 | > 25 | CC(C)(O)c1ccc2c(c1)C(=O)C[C@H]1[C@](C)(C(=O)O)CCC[C@]21C | > 25 |
| > 100 | > 100 | > 25 | CC(C)C1=CC2=CC[C@@H]3[C@](C)(CCC[C@@]3(C)C(=O)O)[C@H]2CC1 [ABIETIC ACID] | > 25 |
| > 100 | > 100 | > 25 | CC(C)c1ccc2c(c1)C(=O)C[C@H]1[C@](C)(CO)CCC[C@]21C | > 25 |
| > 100 | > 100 | > 25 | CC(C)(O)c1ccc2c(c1)CC[C@H]1[C@](C)(COC(=O)CCC(=O)O)CCC[C@]21C [ABIESADINE I] | > 25 |
| 52.1 (≈ 125 µM) | > 100 | > 25 | COC(=O)CCC(=O)OC[C@]1(C)CCC[C@]2(C)c3ccc(C(C)(C)O)cc3CC[C@@H]12 [ABIESADINE K] | > 25 |
| > 100 | > 100 | > 25 | COC(C)(C)c1ccc2c(c1)[C@H](O)C[C@H]1[C@](C)(C(=O)O)CCC[C@]21C [ABIESADINE O] | > 25 |
| > 100 | > 100 | > 25 | COC(C)(C)c1ccc2c(c1)[C@H](O)C[C@H]1[C@](C)(COC(=O)CCC(=O)O)CCC[C@]21C [ABIESADINE M] | > 25 |
| > 100 | > 100 | > 25 | CC(C)(O)c1ccc2c(c1)[C@H](O)C[C@H]1[C@](C)(COC(=O)CCC(=O)O)CCC[C@]21C [ABIESADINE L] | > 25 |
| > 100 | > 100 | > 25 | CC(C)(O)c1ccc2c(c1)CC[C@H]1[C@](C)(CO)CCC[C@]21C | > 25 |
| > 100 | > 100 | 20.3 (≈ 69.9 µM) | C=C/C(C)=C\CC1[C@](C)(O)CC[C@H]2C(C)(C)CCC[C@]12C (some centres undefined) | 25 (≈ 86.1 µM) |

| SMILES | IC50 [2] [µg/mL] | IC50 [3] [µg/mL] | IC50 [4] [µg/mL] | IC50 [1] [µg/mL] |
| --- | --- | --- | --- | --- |
| CC(C)[C@]12C=C3CC[C@H]4[C@](C)(C(=O)O)CCC[C@]4(C)[C@@]3(CC1)OO2 | > 100 | > 100 | > 25 | > 25 |
| CC(C)[C@]12C=C3CC[C@H]4[C@](C)(COC(=O)CCC(=O)O)CCC[C@]4(C)[C@@]3(CC1)OO2 [ABIESADINE W] | > 100 | > 100 | > 25 | > 25 |
| CC(C)c1cc2c(cc1O)[C@@]1(C)CCC[C@@](C)(C(=O)O)[C@@H]1CC2 | 63 (≈ 199 µM) | > 100 | > 25 | > 25 |
| CC(C)[C@@]12C=C3CC[C@H]4[C@](C)(C(=O)O)CCC[C@]4(C)[C@]3(CC1)OO2 | > 100 | > 100 | > 25 | > 25 |
| N=C(N)NN [PIMAGEDINE] | 3.3 (≈ 44.5 µM) | – | – | – |

Source: ChEMBL document CHEMBL1157733, “Isolation, structure, and bioactivities of abiesadines A-Y, 25 new diterpenes from Abies georgei Orr” (Bioorg Med Chem, 2010)
